Experimental data reported in publication PMC7562955 (Nature Communications, 2020).

Target: T1, TLR7 (Homo sapiens, UniProt Q9NYK1)
T1 sequence (Q9NYK1 27-1049): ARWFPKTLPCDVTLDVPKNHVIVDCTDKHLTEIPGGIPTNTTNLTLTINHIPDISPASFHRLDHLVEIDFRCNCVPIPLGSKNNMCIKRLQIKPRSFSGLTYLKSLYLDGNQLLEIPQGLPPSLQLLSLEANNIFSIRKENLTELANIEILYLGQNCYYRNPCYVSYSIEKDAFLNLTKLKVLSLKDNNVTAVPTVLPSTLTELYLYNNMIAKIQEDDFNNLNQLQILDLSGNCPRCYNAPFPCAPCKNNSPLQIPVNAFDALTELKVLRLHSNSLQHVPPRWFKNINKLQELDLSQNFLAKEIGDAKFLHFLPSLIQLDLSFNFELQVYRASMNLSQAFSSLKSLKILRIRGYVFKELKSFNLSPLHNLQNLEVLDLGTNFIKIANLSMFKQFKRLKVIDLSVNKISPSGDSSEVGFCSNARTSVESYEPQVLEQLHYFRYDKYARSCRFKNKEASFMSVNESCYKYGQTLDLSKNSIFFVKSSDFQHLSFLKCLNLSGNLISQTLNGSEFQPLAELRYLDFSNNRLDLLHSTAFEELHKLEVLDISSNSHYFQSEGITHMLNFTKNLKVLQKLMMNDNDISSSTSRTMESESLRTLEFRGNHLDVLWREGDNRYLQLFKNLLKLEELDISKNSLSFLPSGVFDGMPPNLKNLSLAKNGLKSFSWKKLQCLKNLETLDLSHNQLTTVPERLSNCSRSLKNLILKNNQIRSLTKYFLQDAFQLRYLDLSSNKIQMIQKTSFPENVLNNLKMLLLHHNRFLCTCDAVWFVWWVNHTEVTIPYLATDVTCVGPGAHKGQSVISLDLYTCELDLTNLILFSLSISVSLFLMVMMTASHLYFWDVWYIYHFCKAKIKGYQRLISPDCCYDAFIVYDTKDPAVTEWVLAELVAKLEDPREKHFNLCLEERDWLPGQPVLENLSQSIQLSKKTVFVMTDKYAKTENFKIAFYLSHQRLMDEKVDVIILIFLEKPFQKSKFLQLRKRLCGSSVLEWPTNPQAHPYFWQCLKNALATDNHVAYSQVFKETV
Test: Dose-response relationship between antagonist and R848, human TLR7 reporter gene assay
Assay type: cell-based
Design: host or cells: HEK293 (TLR7/NF-κB/SEAPorter)
Description: Compounds were dissolved in dimethyl sulfoxide. Human TLR7 reporter cell line (Novus Biological) were seeded in 96-well microtiter plate (AGC techno glass) at 5 × 10^4 cells/well in DMEM (GIBCO) with 10% fetal bovine serum (GIBCO), and 10 μg ml^−1 Blastcidin S HCl (GIBCO) and incubated at 37 °C in 5% CO2. The plates were incubated over-night and then addition with various concentrations of compound. After 30 min, R848 (human TLR7/8 ligand) that was diluted with the medium was added, wherein final concentration was adjusted to 0.01, 0.03, 0.1, 0.3, 1, 3, 10, 30, 100, 300 and 1000 μM. The plates were then incubated an additional 20 ± 1 h at 37 °C in 5% CO2, and then the SEAP activity was measured as activation of human TLR7. The SEAP activity was evaluated as follows: pNPP (Invitrogen) was added to the incubated sample (50 μl/well); after 15 min, 4 mol l^−1 sodium hydroxide solution (nacalai tesque) was added thereto (50 μl/well) to quench the reaction; and the absorbance of each sample was measured at 405 nm with microplate reader SpectraMax M4 (Molecular Devices).

CCOc1nc(C)c2nc(-c3cncc(F)c3)n(Cc3ccc(CN4C[C@@H]5C[C@H]4CN5C)cc3)c2n1 [Cpd-7]
mode of action against R848: acted as antagonists
TLR7 reporter signal (Cpd-7 0.001 µM, log10[R848 (µM)] 0): 15.1994
TLR7 reporter signal (Cpd-7 0.001 µM, log10[R848 (µM)] 0.477121): 53.0748
TLR7 reporter signal (Cpd-7 0.001 µM, log10[R848 (µM)] 1): 91.3639
TLR7 reporter signal (Cpd-7 0.001 µM, log10[R848 (µM)] 1.47712): 103.082
TLR7 reporter signal (Cpd-7 0.001 µM, log10[R848 (µM)] 2): 104.508
TLR7 reporter signal (Cpd-7 0.001 µM, log10[R848 (µM)] 2.47712): 104.681
TLR7 reporter signal (Cpd-7 0.001 µM, log10[R848 (µM)] 3): 101.38
TLR7 reporter signal (Cpd-7 0.001 µM, log10[R848 (µM)] -0.522879): 2.983
TLR7 reporter signal (Cpd-7 0.001 µM, log10[R848 (µM)] -1): 1.3957
TLR7 reporter signal (Cpd-7 0.001 µM, log10[R848 (µM)] -1.52288): 1.22
TLR7 reporter signal (Cpd-7 0.001 µM, log10[R848 (µM)] -2): 0.09581
TLR7 reporter signal (Cpd-7 0.003 µM, log10[R848 (µM)] 0): 11.9465
TLR7 reporter signal (Cpd-7 0.003 µM, log10[R848 (µM)] 0.477121): 48.0206
TLR7 reporter signal (Cpd-7 0.003 µM, log10[R848 (µM)] 1): 90.4952
TLR7 reporter signal (Cpd-7 0.003 µM, log10[R848 (µM)] 1.47712): 102.689
TLR7 reporter signal (Cpd-7 0.003 µM, log10[R848 (µM)] 2): 104.173
TLR7 reporter signal (Cpd-7 0.003 µM, log10[R848 (µM)] 2.47712): 102.967
TLR7 reporter signal (Cpd-7 0.003 µM, log10[R848 (µM)] 3): 101.934
TLR7 reporter signal (Cpd-7 0.003 µM, log10[R848 (µM)] -0.522879): 2.073
TLR7 reporter signal (Cpd-7 0.003 µM, log10[R848 (µM)] -1): 1.332
TLR7 reporter signal (Cpd-7 0.003 µM, log10[R848 (µM)] -1.52288): 1.335
TLR7 reporter signal (Cpd-7 0.003 µM, log10[R848 (µM)] -2): -0.4152
TLR7 reporter signal (Cpd-7 0.01 µM, log10[R848 (µM)] 3): 101.214
TLR7 reporter signal (Cpd-7 0.1 µM, log10[R848 (µM)] 0): 3.483
TLR7 reporter signal (Cpd-7 0.1 µM, log10[R848 (µM)] 0.477121): 8.9858
TLR7 reporter signal (Cpd-7 0.1 µM, log10[R848 (µM)] 1): 46.2209
TLR7 reporter signal (Cpd-7 0.1 µM, log10[R848 (µM)] 1.47712): 89.5722
TLR7 reporter signal (Cpd-7 0.1 µM, log10[R848 (µM)] 2): 103.066
TLR7 reporter signal (Cpd-7 0.1 µM, log10[R848 (µM)] 2.47712): 105.195
TLR7 reporter signal (Cpd-7 0.1 µM, log10[R848 (µM)] 3): 99.2702
TLR7 reporter signal (Cpd-7 0.1 µM, log10[R848 (µM)] -0.522879): 1.691
TLR7 reporter signal (Cpd-7 0.1 µM, log10[R848 (µM)] -1): 1.377
TLR7 reporter signal (Cpd-7 0.1 µM, log10[R848 (µM)] -1.52288): 1.495
TLR7 reporter signal (Cpd-7 0.1 µM, log10[R848 (µM)] -2): -0.1134
TLR7 reporter signal (Cpd-7 0.3 µM, log10[R848 (µM)] 0): 1.803
TLR7 reporter signal (Cpd-7 0.3 µM, log10[R848 (µM)] 0.477121): 3.628
TLR7 reporter signal (Cpd-7 0.3 µM, log10[R848 (µM)] 1): 15.5922
TLR7 reporter signal (Cpd-7 0.3 µM, log10[R848 (µM)] 1.47712): 56.9825
TLR7 reporter signal (Cpd-7 0.3 µM, log10[R848 (µM)] 2): 94.1266
TLR7 reporter signal (Cpd-7 0.3 µM, log10[R848 (µM)] 2.47712): 104.981
TLR7 reporter signal (Cpd-7 0.3 µM, log10[R848 (µM)] 3): 99.9984
TLR7 reporter signal (Cpd-7 0.3 µM, log10[R848 (µM)] -0.522879): 2.988
TLR7 reporter signal (Cpd-7 0.3 µM, log10[R848 (µM)] -1): 1.0827
TLR7 reporter signal (Cpd-7 0.3 µM, log10[R848 (µM)] -1.52288): 0.3928
TLR7 reporter signal (Cpd-7 0.3 µM, log10[R848 (µM)] -2): -0.2667
TLR7 reporter signal (Cpd-7 1 µM, log10[R848 (µM)] 0): 1.865
TLR7 reporter signal (Cpd-7 1 µM, log10[R848 (µM)] 0.477121): 1.87
TLR7 reporter signal (Cpd-7 1 µM, log10[R848 (µM)] 1): 3.318
TLR7 reporter signal (Cpd-7 1 µM, log10[R848 (µM)] 1.47712): 15.4645
TLR7 reporter signal (Cpd-7 1 µM, log10[R848 (µM)] 2): 58.664
TLR7 reporter signal (Cpd-7 1 µM, log10[R848 (µM)] 2.47712): 94.6679
TLR7 reporter signal (Cpd-7 1 µM, log10[R848 (µM)] 3): 98.5819
TLR7 reporter signal (Cpd-7 1 µM, log10[R848 (µM)] -0.522879): 2.201
TLR7 reporter signal (Cpd-7 1 µM, log10[R848 (µM)] -1): 1.343
TLR7 reporter signal (Cpd-7 1 µM, log10[R848 (µM)] -1.52288): 0.6276
TLR7 reporter signal (Cpd-7 1 µM, log10[R848 (µM)] -2): -0.3625
TLR7 reporter signal (Cpd-7 3 µM, log10[R848 (µM)] 0): 1.3957
TLR7 reporter signal (Cpd-7 3 µM, log10[R848 (µM)] 0.477121): 2.034
TLR7 reporter signal (Cpd-7 3 µM, log10[R848 (µM)] 1): 1.935
TLR7 reporter signal (Cpd-7 3 µM, log10[R848 (µM)] 1.47712): 4.379
TLR7 reporter signal (Cpd-7 3 µM, log10[R848 (µM)] 2): 17.1093
TLR7 reporter signal (Cpd-7 3 µM, log10[R848 (µM)] 2.47712): 59.4864
TLR7 reporter signal (Cpd-7 3 µM, log10[R848 (µM)] 3): 88.3569
TLR7 reporter signal (Cpd-7 3 µM, log10[R848 (µM)] -0.522879): 2.494
TLR7 reporter signal (Cpd-7 3 µM, log10[R848 (µM)] -1): 1.782
TLR7 reporter signal (Cpd-7 3 µM, log10[R848 (µM)] -1.52288): 0.9374
TLR7 reporter signal (Cpd-7 3 µM, log10[R848 (µM)] -2): -0.1469
TLR7 reporter signal (Cpd-7 10 µM, log10[R848 (µM)] 0): 1.161
TLR7 reporter signal (Cpd-7 10 µM, log10[R848 (µM)] 0.477121): 1.935
TLR7 reporter signal (Cpd-7 10 µM, log10[R848 (µM)] 1): 1.487
TLR7 reporter signal (Cpd-7 10 µM, log10[R848 (µM)] 1.47712): 2.632
TLR7 reporter signal (Cpd-7 10 µM, log10[R848 (µM)] 2): 3.275
TLR7 reporter signal (Cpd-7 10 µM, log10[R848 (µM)] 2.47712): 13.6775
TLR7 reporter signal (Cpd-7 10 µM, log10[R848 (µM)] 3): 50.3984
TLR7 reporter signal (Cpd-7 10 µM, log10[R848 (µM)] -0.522879): 2.055
TLR7 reporter signal (Cpd-7 10 µM, log10[R848 (µM)] -1): 1.301
TLR7 reporter signal (Cpd-7 10 µM, log10[R848 (µM)] -1.52288): 0.4759
TLR7 reporter signal (Cpd-7 10 µM, log10[R848 (µM)] -2): -0.6883
TLR7 reporter signal (Cpd-7 30 µM, log10[R848 (µM)] 0): 1.6017
TLR7 reporter signal (Cpd-7 30 µM, log10[R848 (µM)] 0.477121): 2.2708
TLR7 reporter signal (Cpd-7 30 µM, log10[R848 (µM)] 1): 2.316
TLR7 reporter signal (Cpd-7 30 µM, log10[R848 (µM)] 1.47712): 3.334
TLR7 reporter signal (Cpd-7 30 µM, log10[R848 (µM)] 2): 2.078
TLR7 reporter signal (Cpd-7 30 µM, log10[R848 (µM)] 2.47712): 2.285
TLR7 reporter signal (Cpd-7 30 µM, log10[R848 (µM)] 3): 8.593
TLR7 reporter signal (Cpd-7 30 µM, log10[R848 (µM)] -0.522879): 2.676
TLR7 reporter signal (Cpd-7 30 µM, log10[R848 (µM)] -1): 1.493
TLR7 reporter signal (Cpd-7 30 µM, log10[R848 (µM)] -1.52288): 0.7617
TLR7 reporter signal (Cpd-7 30 µM, log10[R848 (µM)] -2): -0.5701
TLR7 reporter signal (Cpd-7 100 µM, log10[R848 (µM)] 0): 1.319
TLR7 reporter signal (Cpd-7 100 µM, log10[R848 (µM)] 0.477121): 2.528
TLR7 reporter signal (Cpd-7 100 µM, log10[R848 (µM)] 1): 1.127
TLR7 reporter signal (Cpd-7 100 µM, log10[R848 (µM)] 1.47712): 2.558
TLR7 reporter signal (Cpd-7 100 µM, log10[R848 (µM)] 2): 1.63
TLR7 reporter signal (Cpd-7 100 µM, log10[R848 (µM)] 2.47712): 1.53
TLR7 reporter signal (Cpd-7 100 µM, log10[R848 (µM)] 3): 0.3114
TLR7 reporter signal (Cpd-7 100 µM, log10[R848 (µM)] -0.522879): 1.865
TLR7 reporter signal (Cpd-7 100 µM, log10[R848 (µM)] -1): 1.004
TLR7 reporter signal (Cpd-7 100 µM, log10[R848 (µM)] -1.52288): 0.5685
TLR7 reporter signal (Cpd-7 100 µM, log10[R848 (µM)] -2): -0.7138
